Results taken from patent US20210401809A1, “PHARMACEUTICAL COMPOUNDS” (Sareum Limited, priority 2016, published 2021).
One block for each compound: values may come before it.

How the values were obtained:
JAK1 = target: T1, JAK1 (Homo sapiens, UniProt P23458); test: In vitro enzyme inhibition, 33P-ATP filter kinase assay (Reaction Biology); assay type: biochemical
T1 construct: 866-1154; GST (N); purchased Reaction Biology Corp. (contract assay); host or cells: Baculovirus in Sf21 insect cells
Description: (§1) Compounds of the invention were assayed for their ability to inhibit TYK2 kinase and other JAK kinases.
(§2) Substrates and kinases used in the assays are identified in Table 2 below.
(§3) JAK3tide=[Ac-[…]-NH2]

JAK3 = target: T2, JAK3 (Homo sapiens, UniProt P52333); test: as above; assay type: biochemical
T2 construct: 781-1124; GST (N); purchased Reaction Biology Corp. (contract assay); host or cells: Baculovirus in Sf21 insect cells
T2 sequence (P52333 781-1124): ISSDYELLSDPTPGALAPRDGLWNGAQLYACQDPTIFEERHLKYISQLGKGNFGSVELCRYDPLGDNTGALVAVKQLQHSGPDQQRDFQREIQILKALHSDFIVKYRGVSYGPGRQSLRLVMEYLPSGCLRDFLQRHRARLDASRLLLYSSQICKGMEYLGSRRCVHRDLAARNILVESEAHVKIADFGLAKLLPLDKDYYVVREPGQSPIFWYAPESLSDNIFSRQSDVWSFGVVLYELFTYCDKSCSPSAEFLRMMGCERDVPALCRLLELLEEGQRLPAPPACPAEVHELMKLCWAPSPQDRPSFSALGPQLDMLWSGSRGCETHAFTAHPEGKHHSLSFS
Description: as §1, §2, §3

TYK2 kinase = target: T3, TYK2 kinase (Homo sapiens, UniProt P29597); test: as above; assay type: biochemical
T3 construct: 833-1187; GST (N); purchased Reaction Biology Corp. (contract assay); host or cells: Baculovirus in Sf21 insect cells
T3 sequence (P29597 833-1187): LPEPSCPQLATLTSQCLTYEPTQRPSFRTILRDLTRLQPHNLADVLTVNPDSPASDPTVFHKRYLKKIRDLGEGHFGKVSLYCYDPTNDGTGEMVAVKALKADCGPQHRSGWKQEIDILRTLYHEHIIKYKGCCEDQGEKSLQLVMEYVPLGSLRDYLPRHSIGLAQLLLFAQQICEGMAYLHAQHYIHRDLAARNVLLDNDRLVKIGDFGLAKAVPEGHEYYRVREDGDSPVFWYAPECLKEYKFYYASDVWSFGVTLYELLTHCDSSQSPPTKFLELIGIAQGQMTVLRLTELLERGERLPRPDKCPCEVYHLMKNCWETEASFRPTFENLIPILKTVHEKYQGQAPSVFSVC
Description: as §1, §2, §3

[1] = tested on: CCRF-CEM cells (TYK2-dependent T-ALL); test: Cell proliferation assay (ATPlite, 7 days); assay type: cell-based; details: Homo sapiens, 168 h
Description: (§4) Jurkat, MOLT-4, CCRF-CEM and CCRF-HSB-2 cells are all TYK2-dependent T-ALL cells. Loucy cells are TYK2-independent T-ALL cell lines. Dexamethasone, Etoposide and Paclitaxel were used as positive controls. Compound effects were studied 7 days after compound addition […] Luminescent product was detected using a BMG FLUOstar plate reader. • The data were analysed using a 4-parameter logistic equation in GraphPad Prism.

[2] = tested on: CCRF-HSB-2 cells (TYK2-dependent T-ALL); test: Cell proliferation assay (ATPlite, 7 days); assay type: cell-based; details: Homo sapiens, CCRF-HSB-2, 168 h
Description: as §4

[3] = tested on: Jurkat cells (TYK2-dependent T-ALL); test: Cell proliferation assay (ATPlite, 7 days); assay type: cell-based; details: Homo sapiens, 168 h
Description: as §4

[4] = tested on: Loucy cells (TYK2-independent T-ALL); test: Cell proliferation assay (ATPlite, 7 days); assay type: cell-based; details: 168 h
Description: as §4

[5] = tested on: MOLT-4 cells (TYK2-dependent T-ALL); test: Cell proliferation assay (ATPlite, 7 days); assay type: cell-based; details: Homo sapiens, MOLT-4, 168 h
Description: as §4

[6] = tested on: PARP cleavage in MOLT-4 cells; test: Western blot assay, chronic compound treatment; assay type: cell-based; details: 48 hrs, tested 0.03-3 μM, FIG. 2
Description: MOLT-4 cells were treated with Compounds 25 and 29 (of Example 1) and three benchmark inhibitors (GLPG0634 (Filgotinib, developed by Galapagos), TG101209 and GDC-046) as comparative examples at five concentrations (3, 1, 0.3, 0.1 and 0.03 μM), for 48 hrs.
Cell lysates were analysed by Western blot and probed with antibodies against PARP and Actin.
The details of the antibodies used are set out in the table below.
Protocol • Cell were plated in 6-well plates at 4e6 cells per well in 6 ml of media (RPMI+10% FBS) and incubated for at least 1 h at 37° C., 5% CO2. • Cells were treated with the indicated concentrations of compounds for 48 hrs. • Cells were harvested by centrifuging at 12,000 rpm for 1 min (4° C.), washed in ice cold PBS and centrifuged again at 12,000 rpm for 1 min (4° C.). • The supernatant was removed and the cell pellet snap frozen on dry ice. • Cells were lysed in RIPA buffer (with protease and phosphatase inhibitors) and incubated on ice for 30 min. • Cellular debris was pelleted at 13,000 rpm for 5 min at 4° C., supernatant was transferred to a fresh tube. • Protein concentration was estimated using a BCA assay. • 30 μg of protein was loaded onto 4-12% NuPAGE Novex Bis-Tris protein gels (MOPs buffer). • Protein was transferred to a PVDF membrane using dry transfer (iBlot) and western blotting performed against the antigens of interest.

[7] = PKPD study: plasma and tumour concentrations; assay type: in vivo, male SCID mice; details: MOLT-4 tumour-bearing mice
Description: (§5) Male SCID mice were implanted with MOLT-4 tumour cells (1×10^7 in 50% matrigel). When tumours reached approximately 150 mm^3 animals received a single dose of test compound. Animals to be sampled at 24 hrs also received a second dose at 12 hrs.
(§6) At 1, 6 and 24 h animals were sacrificed and plasma prepared. Tumour tissue was removed and divided into 2 sections—one for bioanalysis and the second for homogenisation for western blotting.

[8] = tested on: pSTAT1, pTYK2, cleaved PARP in MOLT-4 tumours; test: PKPD study: Western blot of tumour tissue; assay type: in vivo, male SCID mice; details: FIG. 6
Description: as §5, §6
Tumour tissue was homogenised in lysis buffer supplemented with protease and phosphatase inhibitors. Protein in individual samples was quantified using a commercially available BCA kit.
50 μg total protein was run on a 4-20% pre-cast gel and transferred to PVDF membrane before being incubated with the following antibodies: • pSTAT1 • STAT1 • pTYK2 • TYK2 • Cleaved PARP • B-actin • Anti-rabbit IgG

MOLT-4 tumours = test: Efficacy study in mice bearing MOLT-4 tumours (Example 7); assay type: in vivo, male SCID mice; details: 21 days; for effect on MOLT-4 tumour growth: FIG. 7
Text: MOLT-4 cells (1×10^7 in matrigel) were implanted onto the rear dorsum of male SCID mice using a 25-gauge needle. When tumours reached approximately 100 mm^3 the mice were randomly assigned to the following treatment groups.

CCRF-HSB-2 tumours = test: Tumour growth delay study in mice bearing CCRF-HSB-2 tumours (Example 8); assay type: in vivo, male SCID mice; details: for T/C (test versus control) at the end of the study period: 18 days
Description: (§7) Dosing solutions were prepared on the day of study.

MOLT-4 xenografts = test: Tumour growth delay study in mice bearing MOLT-4 xenografts (Example 9); assay type: in vivo, male SCID mice
Description: (§8) A total of 50 male SCID mice aged 5-7 weeks were used for the study. These were bred in-house at Axis Bioservices. Animals were housed in IVC cages (up to 5 per cage) with individual mice identified by tail mark. All animals were allowed free access to a standard certified commercial diet and sanitised water during the study. The holding room was maintained under standard conditions: 20-24° C., 40-70% humidity and a 12 h light/dark cycle.
(§9) MOLT-4 cells (1×10^7 in matrigel) were implanted onto the rear dorsum of male SCID mice using a 25-gauge needle. When tumours reached approximately 100-150 mm^3 the mice were randomly assigned to the following treatment groups.
as §7
(§10) The formulation for cyclophosphamide was PBS at a dosing volume of 10 ml/kg based on animal weight on day of dosing.
(§11) For combination dosing, both compounds were dosed at the same time.

[9] = Animal bodyweight in MOLT-4 xenograft study (Example 9); assay type: in vivo, male SCID mice; details: 25 and 50 mg/kg BID PO, 21 days
Description: as §8, §9, §7, §10, §11

[10] = 150 mg/kg Q5D IP
Description: A total of 40 male SCID mice aged 5-7 weeks were used for the study. These were purchased from Charles River and allowed to acclimatize for 7 days prior to tumour implantation. Animals were housed in IVC cages (up to 5 per cage) with individual mice identified by tail mark. All animals were allowed free access to a standard certified commercial diet and sanitised water during the study. The holding room was maintained under standard conditions: 20-24° C., 40-70% humidity and a 12 h light/dark cycle.
CCRF-HSB-2 cells (5×10^6 in matrigel) were implanted onto the rear dorsum of male SCID mice using a 25-gauge needle. When tumours reached a size of approximately 100-150 mm^3 the mice were randomly assigned to the following treatment groups.
Dosing solutions were prepared on the day of study. Formulation was 0.5% methylcellulose/0.025% Tween-20 at dosing volume of 10 ml/kg based on animal weight on day of dosing. Animals were dosed orally twice daily (12 hours apart) for 18 consecutive days.

[11] = tested on: TYK2 dependent cell lines (T-ALL cells); details: Sanda et al.; read-out: IC50 for inhibiting growth of TYK2 dependent cell lines; cited from earlier work
[12] = tested on: TYK2-independent cell line (LOUCY); details: Sanda et al.; cited from earlier work

T1 sequence (P23458 866-1154): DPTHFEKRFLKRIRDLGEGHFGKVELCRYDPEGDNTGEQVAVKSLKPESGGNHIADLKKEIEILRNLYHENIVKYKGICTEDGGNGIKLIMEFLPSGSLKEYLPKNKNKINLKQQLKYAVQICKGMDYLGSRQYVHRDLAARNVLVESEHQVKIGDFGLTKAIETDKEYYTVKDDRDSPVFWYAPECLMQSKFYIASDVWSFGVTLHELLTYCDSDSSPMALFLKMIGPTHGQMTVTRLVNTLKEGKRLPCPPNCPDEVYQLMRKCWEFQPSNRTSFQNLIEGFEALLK

IC50 (JAK1): 28.9 nM
IC50 (JAK3): 43.2 nM
IC50 (TYK2 kinase): 0.564 nM
IC50 [1]: 0.38 µM
IC50 [2]: 0.43 µM
IC50 [3]: 0.15 µM
IC50 [5]: 0.27 µM
maximal concentration in plasma ([7]; plasma, single dose, FIG. 4): > 4000 ng/mL
time of maximal exposure in plasma after dosing ([7]; plasma, single dose, FIG. 4): one
maximal concentration in tumour tissue ([7]; tumour tissue, FIG. 5): > 3000 ng per gram of tumour tissue
time of maximal exposure in tumour tissue after dosing ([7]; tumour tissue, FIG. 5): six
Compound: NC(=O)c1nc(-c2c(F)cccc2Cl)oc1Nc1ccc(C(=O)N2CCOCC2)cc1 [Compound 25, 2-(2-chloro-6-fluoro-phenyl)-5-[4-(morpholine-4-carbonyl)-phenylamino]-oxazole-4-carboxylic acid amide]
IC50 [4]: 0.35 µM
concentrations at which cleaved PARP is present (apoptosis) [6]: ≥ 1 µM
level of phosphorylated STAT1 in tumour ([8]; MOLT-4 tumour tissue at 1, 6, 24 h vs vehicle): reduction in level of phosphorylated STAT1 at t=1 h, returning to normal in comparison with vehicle treated controls between 6 and 24 h
cleaved Parp in tumour ([8]; MOLT-4 tumour tissue, relative to vehicle treated controls): An increase in cleaved Parp, relative to vehicle treated controls, was observed between 1 and 24 h
Phosphorylated TYK2 levels in tumour ([8]; MOLT-4 tumour tissue, second dose at 12 hrs): increased at 24 h following the initial dose
T/C (test versus control), tumour volume, end of study (MOLT-4 tumours; 25 mg/kg BID per os): 63.5%
T/C (test versus control), tumour weight, end of study (MOLT-4 tumours; 25 mg/kg BID per os): 60.7%
effect on MOLT-4 tumour growth (MOLT-4 tumours; 25 mg/kg BID per os): slowing growth but not resulting in tumour regression
T/C (test versus control), tumour volume, end of study (MOLT-4 tumours; 50 mg/kg BID per os): 27.0%
T/C (test versus control), tumour weight, end of study (MOLT-4 tumours; 50 mg/kg BID per os): 24.0%
effect on MOLT-4 tumour growth (MOLT-4 tumours; 50 mg/kg BID per os): tumour regression

IC50 (JAK1): 16.8 nM
IC50 (JAK3): 90.8 nM
IC50 (TYK2 kinase): 0.617 nM
IC50 [1]: 1.8 µM
IC50 [2]: 1.4 µM
IC50 [3]: 0.6 µM
IC50 [5]: 1.2 µM
bodyweight during the study [9]: maintained at pre-treatment levels
Compound: NC(=O)c1nc(-c2c(Cl)cccc2Cl)oc1Nc1ccc(C(=O)N2CCOCC2)cc1 [Compound 29, 2-(2,6-dichloro-phenyl)-5-[4-(morpholine-4-carbonyl)-phenylamino]-oxazole-4-carboxylic acid amide]
IC50 [4]: 1.7 µM
concentrations at which cleaved PARP is present (apoptosis) [6]: ≥ 3 µM
T/C (test versus control) at the end of the study period (CCRF-HSB-2 tumours; 25 mg/kg BID PO): 18.1%
T/C (test versus control) at the end of the study period (CCRF-HSB-2 tumours; 50 mg/kg BID PO): 10.8%
control of CCRF-HSB-2 tumour growth (CCRF-HSB-2 tumours; 25 and 50 mg/kg BID PO, similar inhibition at both doses (p=0.6397), FIG. 8): good efficacy in controlling CCRF-HSB-2 tumour growth
tumour weight at Day 18 versus vehicle only (CCRF-HSB-2 tumours; 25 and 50 mg/kg BID, p<0.0001, FIG. 9): significantly smaller
T/C (test versus control) at the end of the study period (MOLT-4 xenografts; 25 mg/kg BID PO, 21 days): 26.8%
T/C (test versus control) at the end of the study period (MOLT-4 xenografts; 50 mg/kg BID PO, 21 days): 16.6%

Compound: O=P1(N(CCCl)CCCl)NCCCO1 (stereo not drawn) [cyclophosphamide, reference compound]
T/C (test versus control), tumour volume, end of study (MOLT-4 tumours; 150 mg/kg Q5D): 51.7%
T/C (test versus control), tumour weight, end of study (MOLT-4 tumours; 150 mg/kg Q5D): 49.0%
T/C (test versus control) at the end of the study period (CCRF-HSB-2 tumours; 150 mg/kg Q5D IP): 5.9%
T/C (test versus control) at the end of the study period (MOLT-4 xenografts; 150 mg/kg Q5D IP): 26.2%
animal bodyweight [10]: lost weight this was not significant

Compound: JAK Inhibitor I
IC50 [11]: 1000 to 3000 nM
sensitivity of TYK2-independent cell line (LOUCY) [12]: insensitive
